Experimental findings from patent US20250025438A1, “Derivative of aspartic acid and use thereof in treatment of metabolic diseases such as hepatic fibrosis and non-alcoholic hepatitis” (SHENZHEN JINGTAI TECHNOLOGY CO., LTD., priority 2021, published 2025) are described below.

Structures can show the parent of a compound that is named as a salt. Where a SMILES comes first, the peptide text is derived from it.

Data set [1] is described as follows: Pharmacokinetic testing in rats. Format: in vivo, SD rats. The following applies: male, SD, rat, plasma, PO 20 mg/kg. As for the experimental part: Rats were used as test animals to study the pharmacokinetic behavior of the following compounds in rat plasma.
The drugs were self-made according to the examples of the present invention.
SD rats, 6-8 weeks old, 3 for each administration method/example, male.
The animals were fasted overnight, ate food 8 hours after taking the drug, and drank water freely.
Blood was collected before administration and at 5 min, 15 min, 30 min, 1 hr, 2 hr, 4 hr, 8 hr and 24 hr after administration.
The blood was placed on wet ice and centrifuged to obtain plasma sample (2000 g, 5 min at 4° C.).
The LC-MS/MS method was used to determine the blood drug concentration. The HPLC conditions were: mobile phase A: H2O-0.5% FA; mobile phase B: ACN-0.5% FA;
WinNonlin 8.2 non-compartmental model was used to estimate pharmacokinetic parameters (PK parameters, including but not limited to peak concentration (Cmax), time to peak (Tmax), terminal elimination rate (Ke), terminal elimination half-life (T1/2), area under drug-time curve (AUC), clearance rate (CL), apparent volume of distribution (Vd), mean residence time (MRT), bioavailability (F), etc.).

Data set [2] deals with COL1A1. As to the kind of experiment: In vitro efficacy in semi-activated LX2 cells, qPCR: COL1A1. Format: cell-based. The note with it: 48 hours, Q-PCR; for inhibition at 50 µM: LX-2, 50 µM.
Data set [3] concerns COL1A2. Put plainly: In vitro efficacy in semi-activated LX2 cells, qPCR: COL1A2. Format: cell-based. The note with it: Q-PCR; for inhibition at 50 µM: Homo sapiens, LX-2, 48 hours, read-out: COL1A2 mRNA inhibition rate. As for the experimental part:
(§1) Test compounds were added to the LX-2 cells respectively, and total RNA in the cells was extracted 48 hours later. This experiment was performed strictly in accordance with the instructions of the Total RNA Kit. The steps were as follows (note: this experiment was performed on ice throughout the entire process, and special RNase-free tips were used throughout the entire process): • 1) The 12-well cell culture plate was taken out from the incubator, the cell culture medium was discarded, the cells were washed twice with 1 mL of 1×PBS, and a negative pressure suction device was used to fully remove PBS; • 2) 350 μL of TRK Lysis Buffer mixture/well was prepared as needed (mixture preparation method: 1 mL of TRKLysis Buffer+20 μL of β-mercaptoethanol), vortexed and mixed well. 350 μL was added to each well of the 12-well cell culture plate, and allowed to stand at room temperature for 5 minutes to fully lyse the cells; • 3) 70% ethanol/well was prepared as needed, vortexed and mixed well. 350 μL was added to each well of the 12-well cell culture plate, mixed well by shaking, and transferred to the spin column (spin column+collection tube were assembled); • 4) Centrifugation was performed at 4° C., 12000 g for 60 sec. The waste liquid was discarded after centrifugation, while the spin column was kept; • 5) 500 μL of RNA Wash Buffer I was added, centrifuged at 4° C., 12000 g for 60 sec, the waste liquid was discarded after centrifugation, and the collection column was kept; • 6) 500 μL of RNA Wash Buffer II (confirmed that ethanol had been added) was added, centrifuged at 4° C., 12000 g for 60 sec, the waste liquid was discarded after centrifugation, and the collection column was kept; • 7) step 6) was repeated once again, centrifugation was performed at 4° C., 12000 g for 90 sec, the waste liquid was discarded after centrifugation, and the collection column was kept; • 8) Centrifugation was performed at 4° C., 12000 g for 120 sec to ensure that the spin column was fully dried; • 9) The dried spin column was inserted into a new 1.5 mL EP tube, and 30 μL of DEPC water was added to the membrane in the center of the spin column. It should be careful not to touch the EP tube cover in this step. It was allowed to stand at room temperature for 5 minutes to ensure that the RNA was fully dissolved in DEPC water. Centrifugation was performed at 4° C., 12000 g for 60 sec, and the EP tube was kept; • 10) NanoDrop ultra-micro-volume spectrophotometer was used to detect RNA concentration;
(§2) 5.2 Reverse transcription of RNA into cDNA: According to the instructions of PrimeScript™ RT reagent Kit (Perfect Real Time), the specific experimental steps were as follows:
(§3) 5.3 Q-PCR detection of target gene expression: According to the instructions of Power SYBR® Green PCR Master Mix, the specific operations were as follows:
(§4) After the reaction was completed, the amplification curve and dissolution curve of Q-PCR were confirmed, and the relative quantification method ([…]) was used to perform data analysis on the experimental results.
(§5) LX2 cells were passaged and plated normally. After adherent growth for 12 hours, 50 µM of the test compound was added. After 48 hours, the cells were collected, total RNA was extracted, and Q-PCR was used to detect the changes in the mRNA expression levels of liver fibrosis-related genes (ACTA2 encoding α-SMA, COL1A1 and COLIA2 encoding collagen I, COL3A1 encoding collagen III, SMAD3 encoding Smad3) and inflammation-related genes (IL1β encoding IL-1β, TNFα encoding TNFα) (for specific methods, see 5. Q-PCR detection of target gene expression as described above). α-SMA was a marker of hepatic stellate cell activation, and collagen I and collagen III were the main components of extracellular matrix deposition.

The test system of data set [4] is COL3A1. As to the kind of experiment: In vitro efficacy in semi-activated LX2 cells, qPCR: COL3A1. It counts as cell-based. The following applies: 48 hours, Q-PCR; for inhibition at 50 µM: LX-2, 50 µM.
Data set [5] concerns α-SMA. As to the kind of experiment: In vitro efficacy in semi-activated LX2 cells, qPCR: α-SMA. It counts as cell-based. The following applies: 48 hours, Q-PCR. A digest of the protocol: (§6)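 Plate LX2 cells; after 12 h adherence add compound (50 µM); harvest at 48 h; extract total RNA on ice; make cDNA; run SYBR Green Q-PCR, check amplification and melt curves, analyse by relative quantification.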

Data set [6] has as its system Smad3. Put plainly: In vitro efficacy in semi-activated LX2 cells, qPCR: Smad3. Format: cell-based. The following applies: 48 hours, Q-PCR; for inhibition of the expression of Smad3 at the mRNA level: Table 2. A digest of the protocol: as §6
Data set [7] deals with IL-1β. Put plainly: In vitro efficacy in semi-activated LX2 cells, qPCR: IL-1β. The following applies: 48 hours, Q-PCR. Format: cell-based. As for the experimental part: as §1, §2, §3, §4
as §5, with “After adherent growth for 12 hours, 50 µM of the test compound was added.” left out

Data set [8] concerns TNF-α. Put plainly: In vitro efficacy in semi-activated LX2 cells, qPCR: TNF-α. It counts as cell-based. The note with it: Q-PCR; for inhibition at 50 µM: Homo sapiens, LX-2, 48 hours, read-out: TNF-α mRNA inhibition rate. As for the experimental part: as §1, §2, §3, §4, §5
In data set [9] the test system is collagen I and collagen III. Put plainly: Semi-activated LX2 cells, qPCR: collagen I and collagen III at the mRNA level. Format: cell-based. The following applies: 48 hours, Q-PCR, Table 2. A digest of the protocol:
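LX-2 human hepatic stellate cells, adhered 12 h, were treated with 50 µM test compound for 48 h. Total RNA was extracted, and COL1A1, COL1A2 and COL3A1 mRNA were measured by SYBR Green qPCR.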

Data set [10] has as its system liver fibrosis-related genes. Put plainly: Semi-activated LX2 cells, qPCR: liver fibrosis-related genes overall. The following applies: 48 hours, Q-PCR, Table 2. Format: cell-based. As for the experimental part:
as §1, §3, §5

Data set [11] concerns α-SMA. Put plainly: Semi-activated LX2 cells, Western blot: α-SMA protein. Format: cell-based. The following applies: 50-400 μM, 48 hours, FIG. 2, vs 50 μM aspartic acid.
For data set [12], the system named is COL1A2. Put plainly: In vitro efficacy in semi-activated LX2 cells, qPCR: COL1A2. It counts as cell-based. The following applies: Homo sapiens, LX-2, test concentration 25 μM, 48 hours, Q-PCR, read-out: COL1A2 mRNA inhibition rate.
For data set [13], the system named is FN. Put plainly: Semi-activated LX2 cells, Western blot: FN protein. It counts as cell-based. The note with it: 50-400 μM, 48 hours, FIG. 3, vs 50 μM aspartic acid.
Setting [14] is: Homo sapiens, read-out: COL1A1 mRNA inhibition rate.
Setting [15] is: Homo sapiens, read-out: COL3A1 mRNA inhibition rate.

In the case of `N[C@@H](CC(=O)O)C(=O)O` [Aspartic acid, aspartic acid], in data set [1], the AUC(0-t) is 26700 ng·h/mL and the Tmax came to 24 h. For the same compound, the Cmax in data set [1] (read-out: Cmax) came to 1960 ng/mL.
Consider `CCOC(=O)C[C@H](N)C(=O)OCC.Cl` [Compound 12], for which, in [2] (50 µM), the “COL1A1 mRNA inhibition rate” value is “C (C represented that the inhibition rate was 25% to 50%)”. In data set [3] (50 µM, 48 hours), the “COL1A2 mRNA inhibition rate” value was “E (E represented that the inhibition rate was 1% to 10%)”. In addition, the “COL3A1 mRNA inhibition rate” value in data set [4] (50 µM) is reported as “C (C represented that the inhibition rate was 25% to 50%)”. Besides, in data set [5] (50 µM), the “α-SMA mRNA inhibition rate” value is “E (E represented that the inhibition rate was 1% to 10%)”. Besides, the “Smad3 mRNA inhibition rate” value in [6] (50 µM) is recorded as “D (D represented that the inhibition rate was 10% to 25%)”. Moreover, the “inhibition of the expression of Smad3 at the mRNA level” value in [6] was “could inhibit”. The “IL-1β mRNA inhibition rate” value in data set [7] (50 µM) was “E (E represented that the inhibition rate was 1% to 10%)”. In data set [8] (50 µM, 48 hours), the “TNF-α mRNA inhibition rate” value is reported as “D (D represented that the inhibition rate was 10% to 25%)”. Further, in data set [9], the “inhibition of the expression of collagen I and collagen III at the mRNA level” value is recorded as “could inhibit”. Moreover, the “inhibition of the mRNA expression levels of liver fibrosis-related genes (overall)” value (shortened to “inhibition … (overall)”) in data set [10] is “stronger effects”.
Turning to `COC(=O)[C@H](CC(=O)O)NC(=O)OC(C)(C)C` [Compound 26], the inhibition at 50 µM fell in the range of 25 to 50% in [2] (setting [14]); 1 to 10% in data set [3]; 25 to 50% in [4] (setting [15]); 10 to 25% in data set [5] (50 µM, read-out: α-SMA mRNA inhibition rate); 10 to 25% in [6] (Homo sapiens, LX-2, 50 µM, read-out: Smad3 mRNA inhibition rate); 10 to 25% in [8]. In addition, in data set [5] (Table 2), the “inhibition of the expression of α-SMA at the mRNA level” value was “could inhibit”. Also, the “inhibition of the expression of Smad3 at the mRNA level” value in [6] is reported as “could inhibit”. Besides, in data set [9], the “inhibition of the expression of collagen I and collagen III at the mRNA level” value is listed as “could inhibit”. In addition, the “inhibition … (overall)” value in [10] is “stronger effects”.
For the compound `CC(C)(C)OC(=O)C[C@H](N)C(=O)OC(C)(C)C` [Compound 41], the inhibition at 50 µM in data set [4] (setting [15]) lay within 1 to 10%; in data set [7] (Homo sapiens, LX-2, 50 µM, read-out: IL-1β mRNA inhibition rate) it was 1 to 10%. Besides, in data set [11], the “inhibitory effect on α-SMA protein as compared to ASP” value is listed as “stronger inhibitory effects”.
For the compound `N[C@@H](CS(=O)O)C(=O)O` [Compound 46], the inhibition at 25 µM in data set [12] is 1 to 10%.
Take `COC(=O)[C@H](Cc1ccccc1)NC(=O)[C@@H](N)CC(=O)O` [Compound 48] (HELM PEPTIDE1{D.F.[CO[*:1]]}$$$$V2.0): the results for the inhibition at 50 µM in [2] (setting [14]), in data set [4] (setting [15]) and in data set [8] were 25 to 50%, 10 to 25% and 1 to 10%, respectively. Moreover, in [9], the “inhibition of the expression of collagen I and collagen III at the mRNA level” value is on record as “could inhibit”. Further, in data set [10], the “inhibition … (overall)” value is recorded as “stronger effects”. Also, the “inhibitory effect on α-SMA protein as compared to ASP” value in data set [11] was “stronger inhibitory effects”.
As to `CC(C)OC(=O)[C@@H](N)CC(=O)O` [Compound 50, 1-isopropyl L-aspartic acid ester hydrochloride], the inhibition at 50 µM lay within 25 to 50% in data set [2] (setting [14]) and 1 to 10% in [4] (setting [15]). Further, in data set [9], the “inhibition of the expression of collagen I and collagen III at the mRNA level” value is listed as “could inhibit”. In addition, the “inhibitory effect on FN protein expression as compared to ASP” value in data set [13] is listed as “stronger inhibitory effects”.
For the compound `CC(C)OC(=O)OCOC(=O)C[C@H](N)C(=O)O` [Compound 52, 4-(((isopropoxycarbonyl)oxy)methyl) L-aspartic acid ester hydrochloride], the inhibition at 50 µM lay in the range of 25 to 50% in data set [2] (setting [14]), 1 to 10% in data set [3] and 25 to 50% in [4] (setting [15]). In [9], the “inhibition of the expression of collagen I and collagen III at the mRNA level” value was “could inhibit”. Also, the “inhibition … (overall)” value in data set [10] was “stronger effects”. Further, the “inhibitory effect on α-SMA protein as compared to ASP” value in [11] was “stronger inhibitory effects”. Moreover, in data set [13], the “inhibitory effect on FN protein expression as compared to ASP” value is on record as “stronger inhibitory effects”.
For the compound `N[C@@H](CC(=O)OCOC(=O)C[C@H](N)C(=O)O)C(=O)O` [Compound 55, (2S,2'S)-4,4′-(methylenebis (oxy))bis (2-amino-4-oxobutyric acid) hydrochloride], the inhibition at 25 µM in [2] (Homo sapiens, LX-2, test concentration 25 μM, read-out: COL1A1 mRNA inhibition rate) was in the range of 1 to 10%; in data set [4] (Homo sapiens, LX-2, test concentration 25 μM, read-out: COL3A1 mRNA inhibition rate), 1 to 10%; in [5] (test concentration 25 μM, read-out: α-SMA mRNA inhibition rate), 1 to 10%; in data set [7] (Homo sapiens, LX-2, test concentration 25 μM, read-out: IL-1β mRNA inhibition rate), 1 to 10%; in [12], 1 to 10%.
